Values of other authors as cited in paper PMC7109127 (British Journal of Cancer, 2020).

Legend:
[1] = system: HCC; settings: first-line HCC; cited from earlier work
[2] = cited from earlier work
[3] = system: metastatic renal cell carcinoma; settings: TIVO-1; cited from earlier work
[4] = TIVO-1; cited from earlier work
[5] = system: advanced HCC; design: method as in PMID 18650514; settings: cited from earlier work
[6] = first-line HCC; cited from earlier work
[7] = system: HCC; design: method as in PMID 30665869, PMID 26095784; settings: selective VEGFR-2 inhibition; cited from earlier work

| Compound | ORR (RECIST 1.1) [1] [%] | patients progression free at 6 months [1] [%] | half-life [2] [h] | overall response rate (ORR) [3] [%] | progression-free survival (PFS) [3] [months] | diarrhoea incidence [4] [%] | hypertension incidence [4] [%] | palmar–plantar erythrodysesthesia incidence [4] [%] | objective responses [5] [%] | Fatigue, all grades [6] [%] | Fatigue, grade 3–4 [6] [%] | objective responses in HCC [7] |
| --- | --- | --- | --- | --- | --- | --- | --- | --- | --- | --- | --- | --- |
| COc1cc2nccc(Oc3ccc(NC(=O)NC4CC4)c(Cl)c3)c2cc1C(N)=O [lenvatinib] | 18.8 | 55 | – | – | – | – | – | – | – | – | – | – |
| CNC(=O)c1cc(Oc2ccc(NC(=O)Nc3ccc(Cl)c(C(F)(F)F)c3)cc2)ccn1 [sorafenib] | 6.5 | 35 | 25 to 48 | 23.3 | 9.1 | 33 | 34 | 54 | ≤ 2 | 25 | 4 | – |
| ramucirumab | – | – | – | – | – | – | – | – | – | – | – | does not usually lead to objective responses |
